Patent US10106601B2, “Inhibition of PLGF to treat philadelphia chromosome positive leukemia” (VIB VZW, priority 2008, dated 2018)
Entries after “also recorded” stand apart in the source; their conditions may differ.

How the values were obtained:
[1] = system: PIGF; assay: PIGF levels in PB of CML patients treated with Imatinib; format: in vivo, human
[2] = system: murine BMDSCs; assay: PIGF secretion by stromal cells incubated with imatinib; format: cell-based; conditions: increasing concentrations of imatinib
Method: For isolation of BMDSCs, the bone marrow from femurs and tibias was flushed, the erythrocytes eliminated with lysis buffer (150 mM NH4Cl, 0.1 mM EDTA, 10 mM KHCO3, pH 7.4) and subsequently the cells were cultured in DMEM medium supplemented with 15% FCS. After 24 hours, the non-adherent cell fraction was removed, and the adherent cells were further cultured and expanded for 3 weeks.
Concentrations of PIGF or VEGF were quantified in cell culture supernatants, peripheral blood plasma and bone marrow plasma using “Quantikine” mouse PIGF and mouse VEGF immunoassays (R&D Systems). Concentrations were expressed as pg/ml/10^5 cells or as pg/ml.

[3] = system: BCR/ABL+ cell lines; assay: Induction of proliferation of leukemia cells by recombinant PIGF; format: cell-based, human and murine; conditions: in vitro
Method: Proliferation of leukemia cells and BMDSCs was analyzed by using MTT assays or by manual counting with a hemocytometer. Murine recombinant PIGF and anti-VEGFR-1 were obtained from R&D Systems. Anti-PIGF and control IgG1 were produced by Thrombogenics and Biolnvent and characterized as described (Fischer et al., 2007). PIGF was used at a concentration of 50 ng/ml and the antibodies in 100-fold molar excess, unless stated otherwise. For co-culture experiments, 10^5 BMDSCs were co-cultured for 48 hours with 4×10^5 leukemia cells alone or in presence of the respective antibodies in serum-free medium. Subsequently, numbers of adherent BMDSCs and non-adherent leukemia cells were determined and supernatants were harvested for analyses of PIGF and VEGF protein.

[4] = system: Bv-173 and KCL-22 cells; assay: Western Blots of ABL phosphorylation with and without PIGF; format: cell-based, human; conditions: cells incubated with and without PIGF; data not shown
Method: In order to elucidate, whether PIGF induces changes in ABL phosphorylation of BCR/ABL^+ leukemia cells, we performed Western Blots of Bv-173 and KCL-22 cells that were incubated with and without PIGF.

Molecule	PIGF levels in PB ([1]; patients with BCR/ABL/ABL ratio <1)	PIGF levels in PB ([1]; patients with complete molecular remission (CMR) vs healthy subjects)	PIGF secretion by BMDSCs [2]	induction of proliferation of leukemia cells by PIGF [3]	phosphorylation of ABL [4]
Cc1ccc(NC(=O)c2ccc(CN3CCN(C)CC3)cc2)cc1Nc1nccc(-c2cccnc2)n1 [imatinib]	elevated to similar levels as in untreated, newly diagnosed CML patients	significantly higher	dose-dependent induction of PIGF		
PIGF: murine recombinant placental growth factor from R&D Systems, used at 50 ng/ml (protein, UniProt P49764 19-158, looked up) Placenta growth factor: VHSQGALSAGNNSTEVEVVPFNEVWGRSYCRPMEKLVYILDEYPDEVSHIFSPSCVLLSRCSGCCGDEGLHCVPIKTANITMQILKIPPNRDPHFYVEMTFSQDVLCECRPILETTKAERRKTKGKRKRSRNSQTEEPHP				dose dependently induced proliferation; also recorded: dose-dependent induction of proliferation	did not modify phosphorylation of ABL
